Assay results published in patent publication US8247424B2, “Fredericamycin derivatives” (Zentopharm GmbH, priority 2002, dated 2012).
≈ marks a conversion by molar mass, not a printed value.

How the values were obtained:
[1] = tested on: 12 cancer cell lines: LCL (H460, lung), MACL (MCF7, breast), LXFL (52L, lung), LXFA (629L, lung), MEXF (462NL, melanoma), MEXF (514L, melanoma), MAXF (401NL …); assay: Biological activity against 12 cancer cell lines, efficacy (IC70) averaged over all cell lines; assay type: cell-based; conditions: averaged over all 12 cancer cell lines, 5 test concentrations;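 further: panel also covers renal lines RXF 944L and RXF 486L, uterine UXF 1138L, and prostate lines PRXF PC3M and PRXF 22RV1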
Description: LCL (H460, lung), MACL (MCF7, breast), LXFL (52L, lung), LXFA (629L, lung), MEXF (462NL, melanoma), MEXF (514L, melanoma), MAXF (401NL, breast), RXF (944L, renal), RXF (486L, renal), UXF (1138L, uterus), PRXF (PC3M, prostate), PRXF (22RV1).

[2] = Water solubility of the fredericamycin derivatives; assay type: physicochemical; conditions: 0.9% NaCl solution, pH 7
Excerpt: The water solubility of the various fredericamycin derivatives can be determined in a 0.9% NaCl solution with a pH of 7.

[3] = Water solubility of the fredericamycin derivatives; assay type: physicochemical; conditions: statement in the synthesis text, medium not given

## COC1=CC(=O)c2c(O)c3c(c(O)c2C1=O)C(=O)[C@@]1(CCc2cc4cc(C(O)C(O)C(O)C(C)O)[nH]c(=O)c4c(O)c21)C3=O (stereo partly drawn) [Example 1, 1-Desoxy-5-C-[(8R)-4′,9,9′-trihydroxy-6′-methoxy-1,1′,3′,5′,8′-pentaoxo-1,1′,2,3′,5′,6,7,8′-octahydrospiro[cyclopenta[g]isoquinoline-8,2′-cyclopenta[b]-naphalene]-3-yl]pentitol]
[1]
  IC70: 0.1130 µg/mL (≈ 0.186 µM)

## COC1=CC(=O)c2c(O)c3c(c(O)c2C1=O)C(=O)C1(CCc2cc4cc(C(O)C(O)C(O)C(C)O)[nH]c(=O)c4c(O)c21)C3=O [Example 2, Tri-potassium-1-desoxy-5-C-[(8R)-4′,9,9′-trihydroxy-6′-methoxy-1,1′,3′,5′,8′-pentaoxo-1,1′,2,3′,5′,6,7,8′-octahydrospiro[cyclopenta[g]isoquinoline-8,2′-cyclopenta[b]-naphthalene]-3-yl]pentitol]
[2]
  water solubility: soluble
[3]
  water solubility compared to fredericamycin (1): significantly higher water solubility

## COC1=CC(=O)c2c(O)c3c(c(O)c2C1=O)C(=O)[C@]1(CCc2cc4cc(C=O)[nH]c(=O)c4c(O)c21)C3=O [Example 3, (8S)-4′,9,9′-trihydroxy-6′-methoxy-1,1′,3′,5′,8′-pentaoxo-1,1′,2,3′,5′,6,7,8′-octahydrospiro[cyclopenta[g]isoquinoline-8,2′-cyclopenta[b]-naphthalene]-3-carbaldehyde]
[2]
  water solubility: dissolve very well

## COC1=CC(=O)c2c(O)c3c(c(O)c2C1=O)C(=O)[C@]1(CCc2cc4cc(/C=N/NC(=O)C[n+]5ccccc5)[nH]c(=O)c4c(O)c21)C3=O.[Cl-] [Example 5, 1-[2-Oxo-2-((2E)-2-{[(8S)-4′,9,9′-trihydroxy-6′-methoxy-1,1′,3′,5′,8′-pentaoxo-1,1′,2,3′,5′,6,7,8′-octahydrospiro[cyclopenta[g]isoquinoline-8,2′-cyclopenta[b]-naphthalene]-3-yl]methylene}hydrazino)-ethyl]pyridinium chloride]
[2]
  water solubility: sufficiently and markedly better soluble than fredericamycin

## CON=Cc1cc2cc3c(c(O)c2c(=O)[nH]1)[C@@]1(CC3)C(=O)c2c(O)c3c(c(O)c2C1=O)C(=O)C(OC)=CC3=O [Example 7, (8S)-4′,9,9′-trihydroxy-6′-methoxy-1,1′,3′,5′,8′-pentaoxo-1,1′,2,3′,5′,6,7,8′-octahydrospiro[cyclopenta[g]isoquinoline-8,2′-cyclopenta[b]-naphthalene]-3-carbaldehyde-O-methyloxime]
[2]
  water solubility: sufficiently and markedly better soluble than fredericamycin

## COC1=CC(=O)c2c(O)c3c(c(O)c2C1=O)C(=O)[C@]1(CCc2cc4cc(C(=O)O)[nH]c(=O)c4c(O)c21)C3=O [Example 11, (8S)-4′,9,9′-trihydroxy-6′-methoxy-1,1′,3′,5′,8′-pentaoxo-1,1′,2,3′,5′,6,7,8′-octahydrospiro[cyclopenta[g]isoquinoline-8,2′-cyclopenta[b]-naphthalene]-3-carboxylic acid]
[2]
  water solubility: sufficiently and markedly better soluble than fredericamycin

## COC1=CC(=O)c2c(O)c3c(c(O)c2C1=O)C(=O)[C@]1(CCc2cc4cc(C(=O)[O-])[nH]c(=O)c4c(O)c21)C3=O.[K+] [Example 12, Potassium(8S)-4′,9,9′-trihydroxy-6′-methoxy-1,1′,3′,5′,8′-pentaoxo-1,1′,2,3′,5′,6,7,8′-octahydrospiro[cyclopenta[g]isoquinoline-8,2′-cyclopenta[b]-naphthalene]-3-carboxylate]
[2]
  water solubility: sufficiently and markedly better soluble than fredericamycin

## C/C=C/C=C/c1cc2cc3c(c(O)c2c(=O)[nH]1)[C@@]1(CC3)C(=O)c2c(O)c3c(c(O)c2C1=O)C(=O)C(NC)=CC3=O [Example 265]
[1]
  IC70: 0.1330 µg/mL (≈ 0.247 µM)

## N.N.[Cl][Pt][Cl] [cisplatin]
[1]
  IC70: 37.1020 µg/mL

## (8S)-4′,9,9′-trihydroxy-6′-methoxy-1,1′,3′,5′,8′-pentaoxo-1,1′,2,3′,5′,6,7,8′-octahydrospiro[cyclopenta[g]isoquinoline-8,2′-cyclopenta[b]-naphthalene]-1,1′,3′,5′,8′(2H)-pentone [Example 10]
[2]
  water solubility: soluble

## (8S)-4′,9,9′-trihydroxy-6′-methoxy-1,1′,3′,5′,8′-pentaoxo-1,1′,2,3′,5′,6,7,8′-octahydrospiro[cyclopenta[g]isoquinoline-8,2′-cyclopenta[b]-naphthalene]-3-carbaldehyde oxime [Example 6]
[2]
  water solubility: dissolves well

## (8S)-5-bromo-4′,9,9′-trihydroxy-6′-methoxy-1,1′,3′,5′,8′-pentaoxo-1,1′,2,3′,5′,6,7,8′-octahydrospiro[cyclopenta[g]isoquinoline-8,2′-cyclopenta[b]-naphthalene]-1,1′,3′,5′,8′(2H)-pentone [Example 13]
[2]
  water solubility: soluble
[1]
  IC70: 0.0050 µg/mL

## (8S)-5-chloro-4′,6′,9′-trimethoxy-2-methoxy-3-[(1E,3E)-penta-1,3-dienyl]-6,7-dihydrospiro[cyclopenta[g]isoquinoline-8,2′-cyclopenta[b]-naphthalene]-1,1′,3′,5′,8′(2H)-pentone [Example 22]
[1]
  IC70: 0.0080 µg/mL
